The results in this text go back to US20090156577A1, “7-AMINO ALKYLIDENYL-HETEROCYCLIC QUINOLONES AND NAPHTHYRIDONES” (priority 2004, published 2009).

This assay deals with pathogenic bacteria. Description: MIC by microdilution broth method (NCCLS M7-A4), in vitro antibacterial activity. It is filed as cell-based. The gist of the method:
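MIC read after 35 °C incubation for 16–20 h relative to drug-free growth wells. Cation-adjusted Mueller-Hinton broth with two-fold compound dilutions, organisms at roughly 5×10^4 CFU/well final. Method follows NCCLS document M7-A4.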
(In general: Broth dilution looks for growth in wells or tubes with falling amounts of substance.)

[1] abbreviates: Staphylococcus aureus, Organism A: Staphylococcus aureus OC4172, read-out: MIC.
[2] abbreviates: Streptococcus pneumoniae, ATCC49619, Organism E: Streptococcus pneumoniae ATCC 49619, read-out: MIC.
Setting [3] is: Streptococcus pneumoniae, Organism B: fluoroquinolone-resistant clinical isolate of Streptococcus pneumoniae (QRDR amino acid substitutions).
The mark [4] stands for this setting: Streptococcus pneumoniae, Organism C: fluoroquinolone-resistant clinical isolate of Streptococcus pneumoniae (QRDR amino acid substitutions).
Where [5] appears, read: Streptococcus pneumoniae, Organism D: fluoroquinolone-resistant clinical isolate of Streptococcus pneumoniae (QRDR amino acid substitutions).
[6] abbreviates: Organism A: Staphylococcus aureus OC4172.
Where [7] appears, read: Organism C: fluoroquinolone-resistant clinical isolate of Streptococcus pneumoniae (QRDR amino acid substitutions).
The mark [8] stands for this setting: Organism E: Streptococcus pneumoniae ATCC 49619.
Setting [9] is: Organism B: fluoroquinolone-resistant clinical isolate of Streptococcus pneumoniae (QRDR amino acid substitutions).
The mark [10] stands for this setting: Organism D: fluoroquinolone-resistant clinical isolate of Streptococcus pneumoniae (QRDR amino acid substitutions).

SMILES strings stand for the structures. Values after ≈ are worked out from the molar mass of the structure shown. Read-outs that look alike come from different tables or passages of the source.

As usually defined, the MIC is the smallest concentration in the dilution series that meets the test's criterion for growth inhibition. For `C=C(C)CC(CN)=C1CCN(c2c(F)cc3c(=O)c(C(=O)O)cn(C4CC4)c3c2OC)CC1` [Compound 202, 7-[4-(1-Aminomethyl-3-methyl-but-3-enylidene)-piperidin-1-yl]-1-cyclopropyl-6-fluoro-8-methoxy-4-oxo-1,4-dihydro-quinoline-3-carboxylic acid], the MIC turned out to be 0.5 µg/mL (≈ 1.1 µM) under setting [1]; 2 µg/mL (≈ 4.39 µM) under setting [2]; 16 µg/mL (≈ 35.1 µM) under setting [3]; 16 µg/mL (≈ 35.1 µM) under setting [4]; 8 µg/mL (≈ 17.6 µM) under setting [5].
Take `C=CCC(CN)=C1CCN(c2c(F)cc3c(=O)c(C(=O)O)cn(C4CC4)c3c2OC)CC1` [Compound 203, 7-[4-(1-Aminomethyl-but-3-enylidene)-piperidin-1-yl]-1-cyclopropyl-6-fluoro-8-methoxy-4-oxo-1,4-dihydro-quinoline-3-carboxylic acid]: the MIC is 0.06 µg/mL (≈ 0.136 µM) under setting [1]; 0.12 µg/mL (≈ 0.272 µM) under setting [2]; 0.06 µg/mL (≈ 0.136 µM) under setting [3]; 1 µg/mL (≈ 2.26 µM) under setting [4]; 0.5 µg/mL (≈ 1.13 µM) under setting [5].
Take `COc1c(N2CCC(=C(Br)CN)CC2)c(F)cc2c(=O)c(C(=O)O)cn(C3CC3)c12` [Compound 204, 7-[4-(2-Amino-1-bromo-ethylidene)-piperidin-1-yl]-1-cyclopropyl-6-fluoro-8-methoxy-4-oxo-1,4-dihydro-quinoline-3-carboxylic acid]: the MIC is 0.25 µg/mL (≈ 0.52 µM) under setting [1]; 0.12 µg/mL (≈ 0.25 µM) under setting [2]; 0.5 µg/mL (≈ 1.04 µM) under setting [3]; 0.5 µg/mL (≈ 1.04 µM) under setting [4]; 0.5 µg/mL (≈ 1.04 µM) under setting [5].
In the case of `NCC(Cl)=C1CN(c2c(F)cc3c(=O)c(C(=O)O)cn(C4CC4)c3c2OC(F)F)C1` [Compound 205, 7-[3-(2-Amino-1-chloro-ethylidene)-azetidin-1-yl]-1-cyclopropyl-8-difluoromethoxy-6-fluoro-4-oxo-1,4-dihydro-quinoline-3-carboxylic acid], the MIC runs as follows: under setting [1], 0.25 µg/mL (≈ 0.563 µM); under setting [2], 0.5 µg/mL (≈ 1.13 µM); under setting [3], 2 µg/mL (≈ 4.51 µM); under setting [4], 8 µg/mL (≈ 18 µM); under setting [5], 4 µg/mL (≈ 9.01 µM).
`CN(CC(Cl)=C1CCN(c2c(F)cc3c(=O)c(C(=O)O)cn(C4CC4)c3c2OC(F)F)CC1)Cc1ccccc1` [Compound 206, 7-{4-[2-(Benzyl-methyl-amino)-1-chloro-ethylidene]-piperidin-1-yl}-1-cyclopropyl-8-difluoromethoxy-6-fluoro-4-oxo-1,4-dihydro-quinoline-3-carboxylic acid]: the MIC reads like this: under setting [1], 1 µg/mL (≈ 1.74 µM); under setting [2], 4 µg/mL (≈ 6.94 µM); under setting [4], 4 µg/mL (≈ 6.94 µM); under setting [5], 4 µg/mL (≈ 6.94 µM).
Consider `CN(CC(F)=C1CCN(c2c(F)cc3c(=O)c(C(=O)O)cn(C4CC4)c3c2OC(F)F)CC1)Cc1ccccc1` [Compound 207, 7-{4-[2-(Benzyl-methyl-amino)-1-fluoro-ethylidene]-piperidin-1-yl}-1-cyclopropyl-8-difluoromethoxy-6-fluoro-4-oxo-1,4-dihydro-quinoline-3-carboxylic acid], for which the MIC runs as follows: under setting [1], 1 µg/mL (≈ 1.79 µM); under setting [2], 4 µg/mL (≈ 7.15 µM); under setting [3], 8 µg/mL (≈ 14.3 µM); under setting [4], 8 µg/mL (≈ 14.3 µM); under setting [5], 2 µg/mL (≈ 3.57 µM).
As to `NCC(F)=C1CCN(c2cc3c(cc2F)c(=O)c(C(=O)O)cn3C2CC2)CC1` [Compound 208, 7-[4-(2-Amino-1-fluoro-ethylidene)-piperidin-1-yl]-1-cyclopropyl-6-fluoro-4-oxo-1,4-dihydro-quinoline-3-carboxylic acid], the MIC reads like this: under setting [6], 0.06 µg/mL (≈ 0.154 µM); under setting [7], 2 µg/mL (≈ 5.14 µM); under setting [8], 0.25 µg/mL (≈ 0.642 µM); under setting [3], 0.25 µg/mL (≈ 0.642 µM); under setting [5], 0.25 µg/mL (≈ 0.642 µM).
As for `COc1c(N2CC(=C(Cl)CN)C2)ccc2c(=O)c(C(=O)O)cn(C3CC3)c12` [Compound 209, 7-[3-(2-Amino-1-chloro-ethylidene)-azetidin-1-yl]-1-cyclopropyl-8-methoxy-4-oxo-1,4-dihydro-quinoline-3-carboxylic acid], the MIC was determined as 0.12 µg/mL (≈ 0.308 µM) under setting [1], 2 µg/mL (≈ 5.13 µM) under setting [2], 8 µg/mL (≈ 20.5 µM) under setting [4] and 16 µg/mL (≈ 41 µM) under setting [5].
As to `CC1COc2c(N3CCC(=CCN)C(O)C3)c(F)cc3c(=O)c(C(=O)O)cn1c23` (stereo not drawn) [Compound 210, 9-[4-(2-Amino-ethylidene)-3-hydroxy-piperidin-1-yl]-8-fluoro-3-methyl-6-oxo-2,3-dihydro-6H-1-oxa-3a-aza-phenalene-5-carboxylic acid], the MIC under setting [1] is 8 µg/mL (≈ 19.8 µM), the minimum inhibitory concentration (MIC) under setting [2] is > 16 µg/mL, the MIC under setting [3] is 16 µg/mL (≈ 39.7 µM) and the MIC under setting [4] is 16 µg/mL (≈ 39.7 µM).
Consider `CC(CO)=C1CCN(c2c(F)cc3c(=O)c(C(=O)O)cn4c3c2OCC4C)CC1` (stereo not drawn) [Compound 211, 8-Fluoro-9-[4-(2-hydroxy-1-methyl-ethylidene)-piperidin-1-yl]-3-methyl-6-oxo-2,3-dihydro-6H-1-oxa-3a-aza-phenalene-5-carboxylic acid], for which the MIC by setting is: under setting [1], 0.03 µg/mL (≈ 0.0745 µM); under setting [2], 0.5 µg/mL (≈ 1.24 µM); under setting [3], 4 µg/mL (≈ 9.94 µM); under setting [4], 4 µg/mL (≈ 9.94 µM).
On to `COc1c(N2CCC(=CCN)CC2)c(F)cc2c(=O)c(C(=O)O)cn(C3CC3)c12` [Compound 212, 7-[4-(2-Amino-ethylidene)-piperidin-1-yl]-1-cyclopropyl-6-fluoro-8-methoxy-4-oxo-1,4-dihydro-quinoline-3-carboxylic acid], for which the MIC runs as follows: under setting [1], 0.06 µg/mL (≈ 0.149 µM); under setting [2], 0.12 µg/mL (≈ 0.299 µM); under setting [3], 1 µg/mL (≈ 2.49 µM); under setting [4], 2 µg/mL (≈ 4.98 µM); under setting [5], 2 µg/mL (≈ 4.98 µM).
Turning to `CNCC(F)=C1CCN(c2c(F)cc3c(=O)c(C(=O)O)cn(C4CC4)c3c2OC)CC1` [Compound 213, 1-Cyclopropyl-6-fluoro-7-[4-(1-fluoro-2-methylamino-ethylidene)-piperidin-1-yl]-8-methoxy-4-oxo-1,4-dihydro-quinoline-3-carboxylic acid], the MIC reads like this: under setting [1], 0.12 µg/mL (≈ 0.277 µM); under setting [2], 0.5 µg/mL (≈ 1.15 µM); under setting [4], 2 µg/mL (≈ 4.61 µM); under setting [5], 2 µg/mL (≈ 4.61 µM).
Regarding `CCNCC(F)=C1CCN(c2c(F)cc3c(=O)c(C(=O)O)cn(C4CC4)c3c2OC)CC1` [Compound 214, 1-Cyclopropyl-7-[4-(2-ethylamino-1-fluoro-ethylidene)-piperidin-1-yl]-6-fluoro-8-methoxy-4-oxo-1,4-dihydro-quinoline-3-carboxylic acid], the MIC under setting [1] was 0.06 µg/mL (≈ 0.134 µM), the MIC under setting [2] amounted to 0.25 µg/mL (≈ 0.559 µM), inhibition of growth under setting [4] (MIC) required 1 µg/mL (≈ 2.23 µM) and the minimal inhibitory concentration (MIC) under setting [5] is 1 µg/mL (≈ 2.23 µM).
With `CNCC(Cl)=C1CCN(c2nc3c(cc2F)c(=O)c(C(=O)O)cn3C2CC2)CC1` [Compound 215, 7-[4-(1-Chloro-2-methylamino-ethylidene)-piperidin-1-yl]-1-cyclopropyl-6-fluoro-4-oxo-1,4-dihydro-[1,8]naphthyridine-3-carboxylic acid], the MIC by setting is: under setting [6], 0.25 µg/mL (≈ 0.594 µM); under setting [9], 2 µg/mL (≈ 4.75 µM); under setting [2], 0.25 µg/mL (≈ 0.594 µM); under setting [4], 2 µg/mL (≈ 4.75 µM); under setting [5], 2 µg/mL (≈ 4.75 µM).
Regarding `CNCC(Cl)=C1CCN(c2nc3c(cc2F)c(=O)c(C(=O)O)cn3C2CC2)CC1` [Compound 216, 7-[4-(1-Chloro-2-methylamino-ethylidene)-piperidin-1-yl]-1-cyclopropyl-6-fluoro-4-oxo-1,4-dihydro-[1,8]naphthyridine-3-carboxylic acid], the MIC under setting [6] stood at 0.06 µg/mL (≈ 0.143 µM); the MIC under setting [9] was determined as 0.12 µg/mL (≈ 0.285 µM); the MIC under setting [7] worked out at 2 µg/mL (≈ 4.75 µM); the MIC under setting [10] was 1 µg/mL (≈ 2.38 µM); the MIC under setting [8] worked out at 0.25 µg/mL (≈ 0.594 µM).
In turn, `CNCC(C)=C1CCN(c2nc3c(cc2F)c(=O)c(C(=O)O)cn3C2CC2)CC1` [Compound 217, 1-Cyclopropyl-6-fluoro-7-[4-(1-methyl-2-methylamino-ethylidene)-piperidin-1-yl]-4-oxo-1,4-dihydro-[1,8]naphthyridine-3-carboxylic acid] had an MIC under setting [6] of 0.25 µg/mL (≈ 0.624 µM), an MIC under setting [7] of 2 µg/mL (≈ 4.99 µM), a minimal inhibitory concentration (MIC) under setting [10] of 2 µg/mL (≈ 4.99 µM) and an MIC under setting [8] of 0.25 µg/mL (≈ 0.624 µM).
On to `CNCC(C)=C1CCN(c2cc3c(cc2F)c(=O)c(C(=O)O)cn3C2CC2)CC1` [Compound 218, 1-Cyclopropyl-6-fluoro-7-[4-(1-methyl-2-methylamino-ethylidene)-piperidin-1-yl]-4-oxo-1,4-dihydro-quinoline-3-carboxylic acid], for which the MIC by setting is: under setting [6], 0.12 µg/mL (≈ 0.3 µM); under setting [7], 2 µg/mL (≈ 5.01 µM); under setting [2], 0.25 µg/mL (≈ 0.626 µM); under setting [5], 2 µg/mL (≈ 5.01 µM).
The molecule `CNCC(C)=C1CCN(c2cc3c(cc2F)c(=O)c(C(=O)O)cn3C2CC2)CC1` [Compound 219, 1-Cyclopropyl-6-fluoro-7-[4-(1-methyl-2-methylamino-ethylidene)-piperidin-1-yl]-4-oxo-1,4-dihydro-quinoline-3-carboxylic acid] gave an MIC under setting [6] of 0.5 µg/mL (≈ 1.25 µM); an MIC under setting [7] of 8 µg/mL (≈ 20 µM); an MIC under setting [10] of 4 µg/mL (≈ 10 µM); an MIC under setting [8] of 0.5 µg/mL (≈ 1.25 µM); an MIC under setting [3] of 8 µg/mL (≈ 20 µM).
In the case of `CNCC(C)=C1CCN(c2c(F)cc3c(=O)c(C(=O)O)cn(C4CC4)c3c2OC(F)F)CC1` [Compound 220, 1-Cyclopropyl-8-difluoromethoxy-6-fluoro-7-[4-(1-methyl-2-methylamino-ethylidene)-piperidin-1-yl]-4-oxo-1,4-dihydro-quinoline-3-carboxylic acid], the MIC by setting is: under setting [6], 0.12 µg/mL (≈ 0.258 µM); under setting [7], 4 µg/mL (≈ 8.59 µM); under setting [10], 0.5 µg/mL (≈ 1.07 µM); under setting [8], 0.5 µg/mL (≈ 1.07 µM); under setting [3], 2 µg/mL (≈ 4.3 µM).
